{
  "source": "patent US20250297321A1",
  "about": "“METHOD FOR DETECTING METABOLIC REPROGRAMING OF CANCER TOWARDS FATTY ACIDS METABOLISM” (INSTITUT NATIONAL DE LA SANTE ET DE LA RECHERCHE MEDICALE, priority 2022, published 2025)",
  "molecules": {"B1": {"name": "Kidrolase®: L-asparaginase; catalyzes the hydrolysis of asparagine and glutamine into aspartate and glutamate (protein, UniProt P00805 23-348, looked up)", "L-asparaginase 2": "LPNITILATGGTIAGGGDSATKSNYTVGKVGVENLVNAVPQLKDIANVKGEQVVNIGSQDMNDNVWLTLAKKINTDCDKTDGFVITHGTDTMEETAYFLDLTVKCDKPVVMVGAMRPSTSMSADGPFNLYNAVVTAADKASANRGVLVVMNDTVLDGRDVTKTNTTDVATFKSVNYGPLGYIHNGKIDYQRTPARKHTSDTPFDVSKLNELPKVGIVYNYANASDLPAKALVDAGYDGIVSAGVGNGNLYKSVFDTLATAAKTGTAVVRSSRVPTGATTQDAEVDDAKYGFVASGTLNPQKARVLLQLALTQTKDPQQIQQIFNQY"}},
  "type_in_all_cases": "cell-based, human",
  "key": {"MD901 DLBCL cell line [1]": {"test_system": "MD901 DLBCL cell line", "assay": "Annexin V/DAPI apoptosis assay in MD901", "settings": "for Apoptosis by Annexin V/DAPI staining: MD901 (FIG. 8A); for Drug-induced apoptosis upon RelB-expression knockdown: RelB knocked-down MD901 vs shRNA control (FIG. 8A)", "protocol": "MD901 and SUDHL-4 DLBCL cell lines were obtained from Jos6 Angel Martinez-Climent (Centro de Investigación Médica Aplicada, Pamplona, Spain).\n(§1) DLBCL cells were harvested and washed twice with cold PBS. Cells were resuspended in 1× binding buffer containing Annexin V/APC (BD Biosciences Pharmingen) and 4′,6-diaminidino-2-phenylindole (DAPI, Molecular Probes) for 15 min at room temperature. The samples were subjected to cytometric analysis with a MACSQuant Analyzer 10 Flow Cytometer (Miltenyi Biotec) and the data were analyzed using the Flowjo v10.2 software."}, "MD901 DLBCL cell line [2]": {"test_system": "MD901 DLBCL cell line", "assay": "Mitochondrial transmembrane potential (TMRM) in MD901", "settings": "RelB knocked-down MD901, TMRM low (FIG. 8B)", "protocol": "For determination of mitochondrial transmembrane potential (ΔΨm), cells were stained with 100 nM of Tetramethyl rhodamine methyl ester (TMRM) (Molecular Probes) in RPMI-1640 Glutamax medium for 30 min at room temperature. Cells were evaluated by cytometric analysis as above. During apoptosis, the permeabilization of the mitochondrial outer membrane leads to loss of mitochondrial transmembrane potential (ΔΨm) corresponding to TMRM low/DAPI neg cells."}, "MD901 cells": {"test_system": "MD901 cells", "assay": "Induction of cell death in MD901 cells", "protocol": "as §1\n(§2) Cell viability was assessed using trypan blue dye exclusion."}, "SUDHL-4 cells": {"test_system": "SUDHL-4 cells", "assay": "Induction of cell death in SUDHL-4 cells", "settings": "glycolytic BCR SUDHL-4 cells", "protocol": "as §1, §2"}, "OCILY19 cells": {"test_system": "OCILY19 cells", "assay": "Induction of cell death in OCILY19 cells", "protocol": "as §1, §2"}, "Huh7 cells [3]": {"test_system": "Huh7 cells", "assay": "Huh7 cell growth (RelB overexpressing cells)", "settings": "4-BCA 10 μM, 48 h, vs control cells (FIG. 4B)", "protocol": "(§3) Huh7 HCC cell line and genetically engineered derivatives targeting RelB expression levels (knock-down of RelB expression: Huh7 shRNA human RelB & Huh7 shRNA control; RelB overexpression: Huh7 cDNA human WT Rel & Huh7 cDNA control) were grown in MEM culture medium supplemented with 10% of fetal bovine serum (FBS), 100 U/mL penicillin, and […] streptomycin, 25 mM Hepes Buffer, 1 mM of sodium pyruvate, 1% of non-essential amino-acids (NEAA), which stands for standard culture medium. Huh7 genetically engineered cell lines were only used at passage P1 to P6. Cells passaging occurred twice a week to maintain a condition of 75% confluence. To evaluate the effect of fatty acid treatment, Huh7 cells cultured in FBS-free medium for hours were treated for 16 hours in FBS-free medium supplemented with various concentration (50 to 300 μM) of either oleic or palmitic acid along with 1% of free fatty acid bovine serum albumin.\nas §2"}, "Huh7 cells [4]": {"test_system": "Huh7 cells", "assay": "Huh7 cell death, DAPI staining", "settings": "RelB overexpressing Huh7, palmitic acid 50 μM, 0% FBS, 48 h, in presence of 4-BCA (FIG. 4C)", "protocol": "as §3, with “Huh7 cells cultured in FBS-free medium for hours were treated for 16 hours in FBS-free medium supplemented with various concentration (50 to 300 μM) of either oleic or palmitic acid along with 1% of free fatty” left out\nHuh7 cells were stained with 4′, 6-diamidino-2-phenylindole (DAPI). Then, images were acquired for DAPI positive cells by fluorescent microscopy (magnification: 20×) on at least 6 different fields combined with one acquisition under white light to quantify the total number of cells in the same field. Quantification was carried out by image J software. Cell death is expressed in percentage (number of DAPI positive cells/total number of cells per field)*100)."}},
  "data": [
    {"molecule": "COc1cc(Nc2ncc(F)c(Nc3ccc4c(n3)NC(=O)C(C)(C)O4)n2)cc(OC)c1OC", "note": "[R406]", "values": [
      {"measurement": "Sensitivity to R406-induced apoptosis", "setting": "MD901 DLBCL cell line [1]; MD901 (FIG. 6A)", "result": "insensitive"}
    ]},
    {"molecule": "CN(C)C(=N)N=C(N)N", "note": "[Metformin, metformin]", "values": [
      {"measurement": "Loss of mitochondrial potential upon RelB-expression knockdown", "setting": "MD901 DLBCL cell line [2]", "result": "increase in loss of mitochondrial potential"},
      {"measurement": "Apoptosis by Annexin V/DAPI staining", "setting": "MD901 DLBCL cell line [1]", "result": "significant apoptosis"},
      {"measurement": "Cell death induced by metformin upon knockdown of RelB expression", "setting": "MD901 DLBCL cell line [1]; RelB knocked-down MD901", "result": "even more pronounced cell death"},
      {"measurement": "Drug-induced apoptosis upon RelB-expression knockdown", "setting": "MD901 DLBCL cell line [1]", "result": "markedly increased"}
    ]},
    {"molecule": "C=C1C(=O)OC(CCCCCCCC)C1C(=O)O", "note": "(stereo not shown) [C75]", "values": [
      {"measurement": "Cell death upon inhibition of fatty acid synthesis", "setting": "MD901 cells; MD901, as soon as 24 hours post-treatment (FIG. 11A)", "result": "massive and rapid cell death"},
      {"measurement": "Sensitivity to C75", "setting": "SUDHL-4 cells; compared with MD901 / Oci-Ly19", "result": "much less sensitive"},
      {"measurement": "Cell death upon inhibition of fatty acid synthesis", "setting": "OCILY19 cells; Oci-Ly19, as soon as 24 hours post-treatment (FIG. 12A)", "result": "massive and rapid cell death"}
    ]},
    {"molecule": "O=C(O)/C=C/CBr", "note": "[4-BCA, 4-bromocrotonic acid]", "values": [
      {"measurement": "Cell death upon inhibition of fatty acid oxidation", "setting": "MD901 cells; MD901, as soon as 24 hours post-treatment (FIG. 9A)", "result": "massive and rapid cell death"},
      {"measurement": "Cell growth in RelB overexpressing Huh7 cells", "setting": "Huh7 cells [3]", "result": "the RelB-dependent increase in Huh7 cell number was lost and cell growth rate was even lowered compared to the control cells"},
      {"measurement": "Cell death (DAPI positive cells), RelB pro-survival effect against palmitate", "setting": "Huh7 cells [4]", "result": "RelB pro-survival effect was almost completely abolished"},
      {"measurement": "Sensitivity to 4-BCA treatment", "setting": "SUDHL-4 cells; compared with MD901 / Oci-Ly19 (not shown)", "result": "much less sensitive"},
      {"measurement": "Cell death upon inhibition of fatty acid oxidation", "setting": "OCILY19 cells; Oci-Ly19, as soon as 24 hours post-treatment (FIG. 10A)", "result": "massive and rapid cell death"}
    ]},
    {"molecule": "B1", "values": [
      {"measurement": "Loss of mitochondrial potential upon RelB-expression knockdown", "setting": "MD901 DLBCL cell line [2]", "result": "increase in loss of mitochondrial potential"},
      {"measurement": "Apoptosis by Annexin V/DAPI staining", "setting": "MD901 DLBCL cell line [1]", "result": "significant apoptosis"},
      {"measurement": "Drug-induced apoptosis upon RelB-expression knockdown", "setting": "MD901 DLBCL cell line [1]", "result": "markedly increased"}
    ]}
  ]
}
